Where two headings read alike, the source gives them in different places.
How the values were obtained:
MDA-MB231 cells = assay: Colony formation assay, MDA-MB231; assay type: cell-based, human; conditions: 5 μM KDMS-C70 or 50 or 100 μM YUKA1
Protocol: (§1) Cells were seeded in 6-well plates at low density: HeLa, MCF7, BT474, and PC9 cells at 1000, 2000, 2500, and 2000 cells/well respectively. Media containing the prescribed drugs or 0.1% DMSO was replaced every 3 days. Trastuzumab was used at 5 μg/ml. Gefitinib was used at 2 μM. YUKA1 was used at 50 or 100 μM. Doxycycline was used at 1 μg/ml for 3 days. After 7-42 days depending on the rate of cell growth, cells were fixed in 4% para-formaldehyde in phosphate-buffered saline for 10 minutes rocking at room temperature. They were incubated in 0.05% crystal violet in double-distilled water for 30 minutes rocking at room temperature, washed with water, and dried 24 hours before photographing. ColonyArea, a plugin for ImageJ software, was used for quantification (Guzman et al., 2014, PloS One 9:e92444). Unpaired, two-tailed student's t-test was used to determine significance using GraphPad Prism 6.0 software.
(§2) HeLa (FIG. 11A) and MDA-MB231 cells (FIG. 11B) were treated with DMSO, 5 μM KDMS-C70 or 50 or 100 μM YUKA1 in colony-formation assays. The tables in FIGS. 11C and 11D depict the quantification of experimental data.

full-length FLAG-KDM5A = biological target: T1, full-length FLAG-KDM5A (Homo sapiens, UniProt P29375); assay: AlphaScreen KDM5A demethylation assay (bio-H3K4me3 peptide); assay type: biochemical
T1 construct: Sf21 insect cells were infected with baculovirus to express full-length FLAG-KDM5A; made in house; host or cells: Sf21 insect cells (baculovirus)
Protocol: Histone demethylase assays were performed using previously described methods (Sayegh et al., 2013, J. Biol. Chem. 9408-9417), with the exception of all enzyme reactions containing 125 μM α-KG. Enzymes were used at the following approximate concentrations in validation experiments, chosen based on their activity in AlphaScreen assays: 19 nM FLAG-KDM5A, 15 nM FLAG-KDM5B, 6 nM FLAG-KDM5C, 29 nM His-FLAG-KDM6A, and 16 nM FLAG-KDM6B. 24 nM FLAG-KDM5A was used for Km determination experiments. Reactions were carried out for 1 hour, or were stopped by addition of 30 mM EDTA every 5 minutes for determining enzyme kinetics. Km values were calculated using the Michaelis-Menten non-linear regression analysis on GraphPad Prism 6.0 software. The concentration of DMSO in demethylation reactions was 0.05%. For reactions with catalase, catalase (Sigma C30) or an equal volume of dilution buffer was added to the peptide-containing buffer before addition of the demethylase. The final concentration of catalase in the reactions was 0.01 mg/ml.
The AlphaScreen general IgG (protein A) detection kit from PerkinElmer Life Sciences was used as described previously (Sayegh et al., 2013, J. Biol. Chem. 9408-9417). The luminescence emission was recorded at 570 nm using the AlphaScreen optic module on a Pherastar (BMG Labtech) or Envision (PerkinElmer Life Sciences) microplate reader.
8,861 compounds from the ChemBridge MW-Set, ChemBridge DIVERSet, MicroSource Gen-Plus, MicroSource Pure Natural Products, NIH Clinical Collection, and Enzo Epigenetics libraries were screened for inhibition of FLAG-KDM5A demethylase activity. Compounds were dissolved in DMSO and added at 20 μM to 384-well white plates (Corning 3574) containing 64 nM bio-H3K4me3 peptide in demethylase buffer prior to addition of 13 nM FLAG-KDM5A. Hits were selected at a threshold of three standard deviations (˜30% inhibition). A counter-screen was performed with the hits to eliminate any non-specific compounds. For this, 20 μM compounds were added to 64 nM bio-H3K4me2 peptide in demethylase buffer with no enzyme. Any hits that interfered with the positive signal detection were eliminated. Dose-response curves were performed on selected hits using 0.1-11 μM of compound. Further validation of top hits was performed using 5 μM of each compound or a dose-response curve using 0.05-50 μM of the compound.
Fresh compounds were ordered to confirm identity. IC50 curves were generated for YUKA1 and YUKA2 using 0.05-50 μM compound in 1 hour reactions. IC50 values were calculated by log transformation and non-linear regression log (inhibitor) versus response (three parameters) using Graphpad Prism 6.0 software. Percent activity of KDM5A was calculated for each data point by subtracting the background (average H3K4me3 signal) and dividing by the average signal for the DMSO controls. α-KG competition tests were performed using 150 nM H3K4me3 peptide and 50 μM Fe(II).
AlphaScreen technology (Perkin Elmer) was utilized to perform a screen for small molecule inhibitors of KDM5A. The assay was comprised of two steps, a demethylation reaction followed by detection of the product. A biotinylated H3K4me3 peptide was used as substrate in the demethylation reaction with KDM5A in the presence or absence of small molecule inhibitors. The presence of peptide product (H3K4me1/2) was detected using a product-specific antibody and beads. For this, acceptor beads coated in protein A bound to the antibody, which recognized the peptide product. Donor beads coated in streptavidin bound biotin on the peptide substrate. […]

HeLa cells = assay: Colony formation assay, HeLa; assay type: cell-based, human
Protocol: as §1, §2

T1 sequence (P29375 whole entry): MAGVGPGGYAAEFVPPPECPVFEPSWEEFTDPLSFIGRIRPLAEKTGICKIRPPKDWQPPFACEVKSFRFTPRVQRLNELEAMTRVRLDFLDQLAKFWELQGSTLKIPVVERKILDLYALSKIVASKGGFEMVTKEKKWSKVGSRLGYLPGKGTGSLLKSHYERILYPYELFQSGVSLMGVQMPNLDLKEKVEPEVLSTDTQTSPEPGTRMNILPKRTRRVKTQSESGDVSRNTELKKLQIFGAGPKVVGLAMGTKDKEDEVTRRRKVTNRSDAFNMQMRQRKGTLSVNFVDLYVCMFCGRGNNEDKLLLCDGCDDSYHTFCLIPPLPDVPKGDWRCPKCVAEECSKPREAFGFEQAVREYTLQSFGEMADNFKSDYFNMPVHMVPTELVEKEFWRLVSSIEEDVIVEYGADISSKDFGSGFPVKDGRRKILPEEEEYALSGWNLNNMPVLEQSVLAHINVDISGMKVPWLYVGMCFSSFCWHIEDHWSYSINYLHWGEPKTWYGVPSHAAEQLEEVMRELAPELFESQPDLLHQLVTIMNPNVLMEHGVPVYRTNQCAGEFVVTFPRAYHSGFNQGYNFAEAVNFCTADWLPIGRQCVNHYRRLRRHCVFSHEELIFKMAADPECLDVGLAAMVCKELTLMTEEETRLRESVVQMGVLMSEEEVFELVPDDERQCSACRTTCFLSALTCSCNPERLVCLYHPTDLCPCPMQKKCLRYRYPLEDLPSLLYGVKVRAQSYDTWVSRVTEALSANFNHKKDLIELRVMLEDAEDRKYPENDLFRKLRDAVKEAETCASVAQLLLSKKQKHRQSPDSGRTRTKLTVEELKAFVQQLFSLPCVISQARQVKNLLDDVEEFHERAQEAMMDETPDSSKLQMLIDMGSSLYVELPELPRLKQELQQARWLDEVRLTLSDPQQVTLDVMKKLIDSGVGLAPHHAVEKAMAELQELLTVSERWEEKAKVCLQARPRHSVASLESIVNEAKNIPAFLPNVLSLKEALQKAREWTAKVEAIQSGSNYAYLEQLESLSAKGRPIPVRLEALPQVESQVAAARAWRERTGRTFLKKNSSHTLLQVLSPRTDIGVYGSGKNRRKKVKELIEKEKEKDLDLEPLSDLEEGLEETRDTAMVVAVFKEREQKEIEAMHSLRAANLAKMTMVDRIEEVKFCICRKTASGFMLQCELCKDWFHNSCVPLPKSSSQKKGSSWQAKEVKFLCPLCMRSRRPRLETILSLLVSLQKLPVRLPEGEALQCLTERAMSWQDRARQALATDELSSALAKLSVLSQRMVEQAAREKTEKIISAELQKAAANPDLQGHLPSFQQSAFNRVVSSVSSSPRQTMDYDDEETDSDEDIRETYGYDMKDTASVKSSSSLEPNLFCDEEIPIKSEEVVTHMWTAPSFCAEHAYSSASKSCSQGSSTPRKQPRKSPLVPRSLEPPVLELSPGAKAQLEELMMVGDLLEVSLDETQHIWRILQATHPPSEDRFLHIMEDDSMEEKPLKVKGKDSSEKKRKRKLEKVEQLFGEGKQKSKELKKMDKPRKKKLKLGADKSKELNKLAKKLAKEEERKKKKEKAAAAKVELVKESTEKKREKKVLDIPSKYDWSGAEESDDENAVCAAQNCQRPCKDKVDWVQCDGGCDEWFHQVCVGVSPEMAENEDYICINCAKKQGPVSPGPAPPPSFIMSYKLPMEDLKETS

mode of KDM5A inhibition with respect to Fe(II) (full-length FLAG-KDM5A): uncompetitive with respect to Fe(II)
KDM5A enzyme inhibition at low Fe(II) (full-length FLAG-KDM5A; 5 μM Fe(II)): too weak to generate robust IC50 curves
effect of catalase on inhibitory potency against KDM5A (full-length FLAG-KDM5A; 0.01 mg/ml catalase): did not affect the inhibitory potency
IC50 (full-length FLAG-KDM5A; 0.05-50 μM compound, 1 hour reactions, read-out: average in vitro IC50 against KDM5A): 2660 nM
change of KDM5A IC50 with α-KG concentration (full-length FLAG-KDM5A; 16-fold range of α-KG, 150 nM H3K4me3 peptide, 50 μM Fe(II)): did not change significantly
IC50 (full-length FLAG-KDM5A; inhibitors found by high throughput screening, read-out: KDM5A IC50): 1320 nM
SMILES: C=CCOc1c(CNn2cnnc2S)cccc1OC [YUKA1, 4-([2-(allyloxy)-3-methoxybenzyl]amino)-4H-1,2,4-triazole-3-thiol]
growth in colony-formation assay (MDA-MB231 cells): suppresses growth
growth in colony-formation assay (HeLa cells; 5 μM KDMS-C70 or 50 or 100 μM YUKA1): suppresses growth
number of colonies formed vs DMSO control (HeLa cells; two-week treatment): significantly reduced
